Species: Rattus norvegicus
Assay: Open TG-GATES - Regimen: Single
Type: toxicity, organism-based, Sprague-Dawley
Design: regimen Single, gender Male, age 6 weeks
Details: in vivo, po, 1000 mg/kg, route gavage, dose level Middle; for APTT / Bas / Eos / Fbg / Hb / Ht / Lym / MCH / MCHC / MCV / Mono / Neu / PT / Plat / RBC / Ret / WBC: tissue Blood; for KIDNEY_L / KIDNEY_R / KIDNEY_TOTAL: tissue Kidney; for LIVER: tissue Liver; for A/G / ALP / ALT / AST / BUN / CRE / Ca / Cl / DBIL / GLC / IP / K / LDH / Na / PL / RALB / TBIL / TC / TG / TP / gamma-GTP: tissue Plasma

## CC(=O)[C@@]1(O)CC[C@H]2[C@@H]3C=C(Cl)C4=CC(=O)CC[C@]4(C)[C@H]3CC[C@@]21C [CHLORMADINONE]
3 h
  TERMINAL_BW: 226.2 g
  APTT: 23.3 s
  Bas: 0%
  Eos: 1%
  Fbg: 302 mg/dL
  Hb: 12.9 g/dL
  Ht: 40.2%
  Lym: 75%
  MCH: 21.2 pg
  MCHC: 32.1%
  MCV: 66.1 fL
  Mono: 2.4%
  Neu: 21.2%
  PT: 15.8 s
  Plat: 112.9 x10_4/uL
  RBC: 608.8 x10_4/ul
  Ret: 9.1%
  WBC: 72.4 x10_2/uL
  KIDNEY_L: 1 g
  KIDNEY_R: 1.1 g
  KIDNEY_TOTAL: 2.1 g
  LIVER: 10.9 g
  A/G: 1.3
  ALP: 1451.2 IU/L
  ALT: 38.8 IU/L
  AST: 74 IU/L
  BUN: 13.8 mg/dL
  CRE: 0.1 mg/dL
  Ca: 11.2 mg/dL
  Cl: 104.6 meq/L
  DBIL: 0 mg/dL
  GLC: 176.4 mg/dL
  IP: 8 mg/dL
  K: 4.3 meq/L
  LDH: 166.6 IU/L
  Na: 141.6 meq/L
  PL: 134.4 mg/dL
  RALB: 3.1 g/dL
  TBIL: 0.028 mg/dL
  TC: 74.4 mg/dL
  TG: 50 mg/dL
  TP: 5.5 g/dL
  gamma-GTP: 2 IU/L
6 h
  TERMINAL_BW: 221.4 g
  APTT: 23.3 s
  Bas: 0%
  Eos: 0.2%
  Fbg: 300.8 mg/dL
  Hb: 13 g/dL
  Ht: 40.1%
  Lym: 72.2%
  MCH: 19.8 pg
  MCHC: 32.5%
  MCV: 61.1 fL
  Mono: 1.6%
  Neu: 25.2%
  PT: 15.6 s
  Plat: 119.2 x10_4/uL
  RBC: 655.4 x10_4/ul
  Ret: 8.1%
  WBC: 56.2 x10_2/uL
  KIDNEY_L: 1 g
  KIDNEY_R: 1 g
  KIDNEY_TOTAL: 2 g
  LIVER: 10.3 g
  A/G: 1.2
  ALP: 1445.6 IU/L
  ALT: 43 IU/L
  AST: 73 IU/L
  BUN: 13 mg/dL
  CRE: 0.2 mg/dL
  Ca: 10.8 mg/dL
  Cl: 105.2 meq/L
  DBIL: 0.002 mg/dL
  GLC: 181.2 mg/dL
  IP: 10.2 mg/dL
  K: 4.6 meq/L
  LDH: 143.6 IU/L
  Na: 140.4 meq/L
  PL: 138.2 mg/dL
  RALB: 3.1 g/dL
  TBIL: 0.04 mg/dL
  TC: 81.6 mg/dL
  TG: 27.6 mg/dL
  TP: 5.6 g/dL
  gamma-GTP: 1.6 IU/L
9 h
  TERMINAL_BW: 211.4 g
  APTT: 23.8 s
  Bas: 0%
  Eos: 0.2%
  Fbg: 336.2 mg/dL
  Hb: 13.3 g/dL
  Ht: 41.7%
  Lym: 72.4%
  MCH: 20 pg
  MCHC: 32%
  MCV: 62.5 fL
  Mono: 1%
  Neu: 25.6%
  PT: 15.4 s
  Plat: 110.4 x10_4/uL
  RBC: 667.4 x10_4/ul
  Ret: 7.4%
  WBC: 39.5 x10_2/uL
  KIDNEY_L: 1 g
  KIDNEY_R: 1 g
  KIDNEY_TOTAL: 1.9 g
  LIVER: 10.5 g
  A/G: 1.2
  ALP: 1398.6 IU/L
  ALT: 40.2 IU/L
  AST: 74.6 IU/L
  BUN: 13 mg/dL
  CRE: 0.1 mg/dL
  Ca: 10.7 mg/dL
  Cl: 106.2 meq/L
  DBIL: 0.002 mg/dL
  GLC: 188 mg/dL
  IP: 9.1 mg/dL
  K: 4.3 meq/L
  LDH: 157.2 IU/L
  Na: 141.2 meq/L
  PL: 156.2 mg/dL
  RALB: 3.2 g/dL
  TBIL: 0.024 mg/dL
  TC: 84.4 mg/dL
  TG: 81.2 mg/dL
  TP: 5.7 g/dL
  gamma-GTP: 1.2 IU/L
24 h
  TERMINAL_BW: 231.1 g
  APTT: 24.4 s
  Bas: 0%
  Eos: 1%
  Fbg: 333.6 mg/dL
  Hb: 13.2 g/dL
  Ht: 40.6%
  Lym: 77.8%
  MCH: 20.5 pg
  MCHC: 32.6%
  MCV: 63 fL
  Mono: 2.2%
  Neu: 18.6%
  PT: 15.5 s
  Plat: 125.6 x10_4/uL
  RBC: 644.6 x10_4/ul
  Ret: 7.9%
  WBC: 130.2 x10_2/uL
  KIDNEY_L: 1 g
  KIDNEY_R: 1.1 g
  KIDNEY_TOTAL: 2.1 g
  LIVER: 12.1 g
  A/G: 1.2
  ALP: 1702.6 IU/L
  ALT: 45.8 IU/L
  AST: 70.8 IU/L
  BUN: 17.8 mg/dL
  CRE: 0.2 mg/dL
  Ca: 11.1 mg/dL
  Cl: 105.8 meq/L
  DBIL: 0 mg/dL
  GLC: 193.4 mg/dL
  IP: 7.8 mg/dL
  K: 4.5 meq/L
  LDH: 184.2 IU/L
  Na: 140.8 meq/L
  PL: 168 mg/dL
  RALB: 3.3 g/dL
  TBIL: 0 mg/dL
  TC: 77.2 mg/dL
  TG: 188.8 mg/dL
  TP: 5.9 g/dL
  gamma-GTP: 1.6 IU/L
